Test results taken from patent US20120309622A1, “HERBICIDES CONTAINING SUBSTITUTED THIEN-3-YL-SULPHONYLAMINIO(THIO)CARBONYL-TRIAZOLIN(ETHI)ONES” (BAYER INTELLECTUAL PROPERTY GMBH, priority 2001, published 2012).
“And” between values parts separate entries of the source, which are not always exact repeats. Identical values can stand only once. Like-named read-outs stand apart in the source and are kept apart here.

Assays:
Type in all cases: in vivo
Digitaria sanguinalis = assay: Post-emergence test/greenhouse, % damage after three weeks
Source text: (§1) The expected action for a given combination of two herbicides can be calculated as follows (cf. COLBY, S. R.: “Calculating synergistic and antagonistic responses of herbicide combinations”, Weeds 15, pages 20-22, 1967):
(§2) If • X=% damage by herbicide A (active compound of the formula I) at an application rate of p kg/ha and • Y=% damage by herbicide B (active compound of the formula II) at an application rate of q kg/ha and • E=the expected damage of herbicides A+B at an application rate of p+q kg/ha, then
(§3) If the actual damage exceeds the calculated value, the combination has a superadditive effect, that is to say a synergistic effect.
(§4) Test plants are grown under control conditions (temperature and light). Once the plants have reached a height of 5 to 15 cm, the test compound or the combination of test compounds is applied by spraying such that the particular amounts of active compound desired are applied per unit area. The concentration of the spray liquor is chosen so that the particular amounts of active compound desired are applied in 500 litres of water/ha.
(§5) Following the spray application, the plant containers are kept in the greenhouse under constant light and temperature conditions.
(§6) After three weeks, the degree of damage to the plants is rated in % damage in comparison to the development of the untreated control.
(§7) The figures denote: • 0%=no effect (like untreated control) • 100%=total destruction

Avena fatua = assay: as above
Source text: as §1, §2, §3, §4, §5, §6, §7

Chenopodium album = assay: as above
Source text: as §1, §2, §3, §4, §5, §6, §7

Matricaria inodora = assay: as above
Source text: as §1, §2, §3, §4, §5, §6, §7

Cyperus esculentus = assay: as above
Source text: as §1, §2, §3, §4, §5, §6, §7

Ipomoea hederacea = assay: as above
Source text: as §1, §2, §3, §4, §5, §6, §7

Abutilon theophrasti = assay: as above
Source text: as §1, §2, §3, §4, §5, §6, §7

Alopecurus myosuroides = assay: as above
Source text: as §1, §2, §3, §4, §5, §6, §7

Viola arvensis = assay: as above
Source text: as §1, §2, §3, §4, §5, §6, §7

Setaria viridis = assay: as above; settings: for Setria viridis observed: post-emergence
Source text: as §1, §2, §3, §4, §5, §6, §7

Xanthium strumarium = assay: as above
Source text: as §1, §2, §3, §4, §5, §6, §7

Polygonum convolvolus = assay: as above
Lolium perenne = assay: as above
test plants = assay: Post-emergence test/greenhouse, % damage after three weeks (further test plants, Tables A-1-30 to A-1-104)
Source text: as §1, §2, §3, §4, §5, §6, §7

Eriochloa villosa = assay: Post-emergence test/greenhouse, % damage after three weeks
Bromus secalinus = assay: as above; settings: Bromus secalinus, post-emergence, 504 h, read-out: Bromus secalinus observed
Description: as §1, §3
(§8) Test plants are grown under control conditions (temperature and light).
as §5, §6

Veronica persicaria = assay: as above
Description: as §1, §3, §8, §5, §6

Cassia tora = assay: as above
Description: as §1, §3, §8, §5, §6

Galium aparine = assay: as above; settings: 4 g of ai/ha

In the case of COC(=O)c1csc(C)c1S(=O)(=O)NC(=O)n1nc(OC)n(C)c1=O [I-2], the Digitaria sanguinalis observed (Digitaria sanguinalis; 4 g of ai/ha) was 60%, the Digitaria sanguinalis observed (Digitaria sanguinalis; 8 g of ai/ha) was 80% and 90% and the Avena fatua observed (Avena fatua; 2 g of ai/ha) was 70% and 50% and 80%. The Avena fatua observed (Avena fatua; 4 g of ai/ha) was 80% and 70% and 90%, the Avena fatua observed (Avena fatua; 8 g of ai/ha) was 70% and 90% and the Avena fatua observed (Avena fatua; 15 g of ai/ha) was 70%. The Chenopodium album observed (Chenopodium album; 4 g of ai/ha) was 70%, the “Activity against Chenopodium album (%)” value (Chenopodium album; 8 g of a.i./ha) was 70% and the Chenopodium album observed (Chenopodium album; 8 g of ai/ha) was 85%. The Chenopodium album observed (Chenopodium album; application rate 2 g of ai/ha) was 70%, the Matricaria inodora observed (Matricaria inodora; 2 g of ai/ha) was 50% and 80% and the Matricaria inodora observed (Matricaria inodora; 4 g of ai/ha) was 70%. The Matricaria inodora observed (Matricaria inodora; 15 g of ai/ha) was 95%, the Cyperus esculentus observed (Cyperus esculentus; 8 g of ai/ha) was 80% and 70% and the Cyperus esculentus observed (Cyperus esculentus; 15 g of ai/ha) was 70%. The Ipomoea hederacea observed (Ipomoea hederacea; 2 g of ai/ha) was 80%, the Ipomoea hederacea observed (Ipomoea hederacea; 4 g of ai/ha) was 80% and the Ipomoea hederacea observed (Ipomoea hederacea; 8 g of ai/ha) was 80%. For the same compound, the Abutilon theophrasti observed (Abutilon theophrasti; 2 g of ai/ha) was 60%, the Abutilon theophrasti observed (Abutilon theophrasti; 4 g of ai/ha) was 70% and the “Activity against Abutilon theophrasti (%)” value (Abutilon theophrasti; 8 g of a.i./ha) was 70%. For the same compound, the Alopecurus myosuroides observed (Alopecurus myosuroides; 2 g of ai/ha) was 70% and 80%, the Alopecurus myosuroides observed (Alopecurus myosuroides; 4 g of ai/ha) was 70% and 80% and the Alopecurus myosuroides observed (Alopecurus myosuroides; 8 g of ai/ha) was 90% and 80%. For the same compound, the Alopecurus myosuroides observed (Alopecurus myosuroides; 15 g of ai/ha) was 90% and 80%, the Viola arvensis observed (Viola arvensis; 4 g of ai/ha) was 40% and the Viola arvensis observed (Viola arvensis; 8 g of ai/ha) was 50%. For the same compound, the Setaria viridis observed (Setaria viridis; 2 g of ai/ha) was 90%, the Setaria viridis observed (Setaria viridis; 4 g of ai/ha) was 80% and 90% and the Setaria viridis observed (Setaria viridis; 8 g of ai/ha) was 90% and 95%. The Setria viridis observed (Setaria viridis; application rate 2 g of ai/ha) was 90%, the Setria viridis observed (Setaria viridis; application rate 4 g of ai/ha) was 90% and the Xanthium strumarium observed (Xanthium strumarium; 4 g of ai/ha) was 90%. For the same compound, the Xanthium strumarium observed (Xanthium strumarium; 8 g of ai/ha) was 70%, the Polygonum convolvolus observed (Polygonum convolvolus; 2 g of ai/ha) was 70% and the Polygonum convolvolus observed (Polygonum convolvolus; 4 g of ai/ha) was 70% and 80%. The Lolium perenne observed (Lolium perenne; 2 g of ai/ha) was 70% and 80%, the Lolium perenne observed (Lolium perenne; 4 g of ai/ha) was 70% and the Lolium perenne observed (Lolium perenne; 8 g of ai/ha) was 90%. It also gave a Polygonum convolvolus observed (test plants; application rate 2 g of ai/ha) of 70%, a Polygonum convolvolus observed (test plants; application rate 4 g of ai/ha) of 80% and a Polygonum convolvolus observed (test plants; application rate 8 g of ai/ha) of 90%. The Eriochloa villosa observed (Eriochloa villosa; 4 g of ai/ha) was 40% and 30%, the Eriochloa villosa observed (Eriochloa villosa; 8 g of ai/ha) was 70% and 60% and 90% and the pest or weed control at 2 g/ha (Bromus secalinus; 2 g of ai/ha) was 70%. The pest or weed control at 4 g/ha (Bromus secalinus; 4 g of ai/ha) was 70%, the pest or weed control at 8 g/ha (Bromus secalinus; 8 g of ai/ha) was 80% and the pest or weed control at 15 g/ha (Bromus secalinus; 15 g of ai/ha) was 70%. For the same compound, the pest or weed control at 8 g/ha (Bromus secalinus; application rate 8 g of ai/ha) was 80%, the Veronica persicaria observed (Veronica persicaria; 2 g of ai/ha) was 0% and the Veronica persicaria observed (Veronica persicaria; 15 g of ai/ha) was 60% and 40%. For the same compound, the Cassia tora observed (Cassia tora; 2 g of ai/ha) was 20%, the Cassia tora observed (Cassia tora; 4 g of ai/ha) was 0% and the Cassia tora observed (Cassia tora; 8 g of ai/ha) was 0%. The Galium aparine observed (Galium aparine) was 80%.
